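Cultured in 96-well plates, cells were exposed to test compound for 48 hours across five concentrations. TGI: total growth inhibition.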
Key:
Test in all cases: NCI anticancer screen, dose series, 48 h
786-0 renal = tested on: 786-0 renal
BT-549 breast = tested on: BT-549 breast
CCRF-CEM leukemia = tested on: CCRF-CEM leukemia
COLO 205 colon = tested on: COLO 205 colon
HCT-116 colon = tested on: HCT-116 colon
HOP-62 NSCLC = tested on: HOP-62 NSCLC
HOP-92 NSCLC = tested on: HOP-92 NSCLC
HS 578T breast = tested on: HS 578T breast
HT29 colon = tested on: HT29 colon
K-562 leukemia = tested on: K-562 leukemia
KM12 colon = tested on: KM12 colon
LOX IMVI melanoma = tested on: LOX IMVI melanoma
M14 melanoma = tested on: M14 melanoma
MDA-MB-231 breast = tested on: MDA-MB-231 breast
MDA-N = tested on: MDA-N
MOLT-4 leukemia = tested on: MOLT-4 leukemia
NCI-H226 lung = tested on: NCI-H226 lung
NCI-H23 lung = tested on: NCI-H23 lung
NCI-H460 lung = tested on: NCI-H460 lung
NCI-H522 lung = tested on: NCI-H522 lung
NCI/ADR-RES ovarian = tested on: NCI/ADR-RES ovarian
OVCAR-3 ovarian = tested on: OVCAR-3 ovarian
OVCAR-4 ovarian = tested on: OVCAR-4 ovarian
OVCAR-8 ovarian = tested on: OVCAR-8 ovarian
PC-3 prostate = tested on: PC-3 prostate
RXF 393 renal = tested on: RXF 393 renal
SF-268 CNS = tested on: SF-268 CNS
SF-295 CNS = tested on: SF-295 CNS
SK-MEL-28 melanoma = tested on: SK-MEL-28 melanoma
SK-OV-3 ovarian = tested on: SK-OV-3 ovarian
SN12C renal = tested on: SN12C renal
SNB-19 CNS = tested on: SNB-19 CNS
SNB-75 CNS = tested on: SNB-75 CNS
SW-620 colon = tested on: SW-620 colon
TK-10 renal = tested on: TK-10 renal
U251 CNS = tested on: U251 CNS
UACC-62 melanoma = tested on: UACC-62 melanoma
A498 renal = tested on: A498 renal
A549 NSCLC = tested on: A549 NSCLC
ACHN renal = tested on: ACHN renal
CAKI-1 renal = tested on: CAKI-1 renal
DU-145 prostate = tested on: DU-145 prostate
EKVX NSCLC = tested on: EKVX NSCLC
HCT-15 colon = tested on: HCT-15 colon
HL-60(TB) leukemia = tested on: HL-60(TB) leukemia
IGROV1 ovarian = tested on: IGROV1 ovarian
MDA-MB-435 = tested on: MDA-MB-435
OVCAR-5 ovarian = tested on: OVCAR-5 ovarian
RPMI-8226 leukemia = tested on: RPMI-8226 leukemia
SK-MEL-2 melanoma = tested on: SK-MEL-2 melanoma
SK-MEL-5 melanoma = tested on: SK-MEL-5 melanoma
UACC-257 melanoma = tested on: UACC-257 melanoma
UO-31 renal = tested on: UO-31 renal

In the case of CC(=Nc1ccc(Cl)c(Cl)c1)c1ccncc1, the TGI (786-0 renal) is reported as over 100 µM, the TGI (BT-549 breast) is reported as over 100 µM and the TGI (CCRF-CEM leukemia) is reported as over 100 µM. It also gave a TGI (COLO 205 colon) of over 100 µM, a TGI (HCT-116 colon) of over 100 µM and a TGI (HOP-62 NSCLC) of over 100 µM. It also gave a TGI (HOP-92 NSCLC) of over 100 µM, a TGI (HS 578T breast) of over 100 µM and a TGI (HT29 colon) of over 100 µM. It also gave a TGI (K-562 leukemia) of over 100 µM, a TGI (KM12 colon) of over 100 µM and a TGI (LOX IMVI melanoma) of over 100 µM. For the same compound, the TGI (M14 melanoma) was over 100 µM, the TGI (MDA-MB-231 breast) was over 100 µM and the TGI (MDA-N) was over 100 µM. For the same compound, the TGI (MOLT-4 leukemia) was over 100 µM, the TGI (NCI-H226 lung) was over 100 µM and the TGI (NCI-H23 lung) was over 100 µM. For the same compound, the TGI (NCI-H460 lung) was over 100 µM, the TGI (NCI-H522 lung) was over 100 µM and the TGI (NCI/ADR-RES ovarian) was over 100 µM. The TGI (OVCAR-3 ovarian) was over 100 µM, the TGI (OVCAR-4 ovarian) was over 100 µM and the TGI (OVCAR-8 ovarian) was over 100 µM. The TGI (PC-3 prostate) was over 100 µM, the TGI (RXF 393 renal) was over 100 µM and the TGI (SF-268 CNS) was over 100 µM. The TGI (SF-295 CNS) was over 100 µM, the TGI (SK-MEL-28 melanoma) was over 100 µM and the TGI (SK-OV-3 ovarian) was over 100 µM. The TGI (SN12C renal) was over 100 µM, the TGI (SNB-19 CNS) was over 100 µM and the TGI (SNB-75 CNS) was over 100 µM. For the same compound, the TGI (SW-620 colon) was over 100 µM, the TGI (TK-10 renal) was over 100 µM and the TGI (U251 CNS) was over 100 µM. For the same compound, the TGI (UACC-62 melanoma) was over 100 µM.

For O=c1[nH]c2c(c(=O)[nH]1)C(c1ccc([N+](=O)[O-])cc1)c1c([nH]c(=O)[nH]c1=O)O2, the TGI (786-0 renal) was over 100 µM, the TGI (A498 renal) was over 100 µM and the TGI (A549 NSCLC) was over 100 µM. It also gave a TGI (ACHN renal) of over 100 µM, a TGI (BT-549 breast) of over 100 µM and a TGI (CAKI-1 renal) of over 100 µM. The TGI (CCRF-CEM leukemia) was 90.5 µM, the TGI (COLO 205 colon) was over 100 µM and the TGI (DU-145 prostate) was over 100 µM. The TGI (EKVX NSCLC) was over 100 µM, the TGI (HCT-116 colon) was over 100 µM and the TGI (HCT-15 colon) was over 100 µM. It also gave a TGI (HL-60(TB) leukemia) of over 100 µM, a TGI (HOP-62 NSCLC) of over 100 µM and a TGI (HS 578T breast) of over 100 µM. It also gave a TGI (HT29 colon) of over 100 µM, a TGI (IGROV1 ovarian) of over 100 µM and a TGI (KM12 colon) of over 100 µM. It also gave a TGI (M14 melanoma) of over 100 µM, a TGI (MDA-MB-231 breast) of over 100 µM and a TGI (MDA-MB-435) of over 100 µM. For the same compound, the TGI (MDA-N) was over 100 µM, the TGI (NCI-H226 lung) was over 100 µM and the TGI (NCI-H23 lung) was over 100 µM. It also gave a TGI (NCI-H460 lung) of over 100 µM, a TGI (NCI-H522 lung) of 82.9 µM and a TGI (OVCAR-3 ovarian) of over 100 µM. The TGI (OVCAR-4 ovarian) was over 100 µM, the TGI (OVCAR-5 ovarian) was over 100 µM and the TGI (OVCAR-8 ovarian) was over 100 µM. The TGI (PC-3 prostate) was over 100 µM, the TGI (RPMI-8226 leukemia) was 75 µM and the TGI (RXF 393 renal) was over 100 µM. The TGI (SF-268 CNS) was over 100 µM, the TGI (SF-295 CNS) was over 100 µM and the TGI (SK-MEL-2 melanoma) was over 100 µM. The TGI (SK-MEL-28 melanoma) was over 100 µM, the TGI (SK-MEL-5 melanoma) was over 100 µM and the TGI (SK-OV-3 ovarian) was over 100 µM. The TGI (SN12C renal) was over 100 µM, the TGI (SNB-19 CNS) was over 100 µM and the TGI (SW-620 colon) was over 100 µM. For the same compound, the TGI (TK-10 renal) was over 100 µM, the TGI (U251 CNS) was over 100 µM and the TGI (UACC-257 melanoma) was over 100 µM. For the same compound, the TGI (UACC-62 melanoma) was over 100 µM and the TGI (UO-31 renal) was over 100 µM.

Source: PubChem BioAssay (NCI)
